Measured values: ChEMBL document CHEMBL4651402, “Screening of ~5500 FDA-approved drugs and clinical candidates for anti-SARS-CoV-2 activity” (2021)

System: SARS-CoV-2
Experiment: microbe, parasite or virus in culture
Details: Severe acute respiratory syndrome coronavirus 2, Vero C1008, 48 h

SMILES | IC50 | IC50 (read-out: pIC50 (converted))
CCCCC(=O)O[C@]1(C(=O)CO)C(C)CC2C3CCC4=CC(=O)C=CC4(C)[C@@]3(F)C(O)CC21C (stereo partly drawn) | > 20 µM | > 20 µM
NC(Cc1ccc(O)cc1)C(=O)O (stereo not drawn) | > 20 µM | > 20 µM
CN(C)CCCCCCN(C)C | > 20 µM | > 20 µM
CCN(CC)CCOC(=O)C1(c2ccc([N+](=O)[O-])cc2)CCCC1 | > 20 µM | > 20 µM
O=C(/C=C/c1ccc(O)cc1)c1ccccc1O | > 20 µM | > 20 µM
CO[C@H]1/C=C\O[C@@]2(C)Oc3c(C)c(O)c4c(O)c(c(/C=N/N5CCN(C6CCCC6)CC5)c(O)c4c3C2=O)NC(=O)/C(C)=C\C=C/[C@H](C)[C@H](O)[C@@H](C)[C@@H](O)[C@@H](C)[C@H](OC(C)=O)[C@@H]1C | > 20 µM | > 20 µM
COc1ccc(CC2c3cc(OC)c(OC)cc3CC[N+]2(C)CCC(=O)OCCCCCOC(=O)CC[N+]2(C)CCc3cc(OC)c(OC)cc3C2Cc2ccc(OC)c(OC)c2)cc1OC (stereo not drawn) | > 20 µM | > 20 µM
COc1ccc(-n2nc3c4c([nH]cc-3c2=O)CCCCC4)cc1 | > 20 µM | > 20 µM
Cc1nccc2c1[nH]c1cc(O)ccc12 | > 20 µM | > 20 µM
CC(=O)OC1CC2CCC1(C)C2(C)C (stereo not drawn) | > 20 µM | > 20 µM
NC(CSCC(=O)O)C(=O)O (stereo not drawn) | > 20 µM | > 20 µM
CC(C)C(C)/C=C/C(C)C1CCC2C3=CC=C4CC(O)CCC4(C)C3CCC21C (stereo not drawn) | > 20 µM | > 20 µM
Cc1c(O)c(=O)n(-c2ccccc2)n1C | > 20 µM | > 20 µM
Cc1ccccn1 | > 20 µM | > 20 µM
COc1cc2c3cc1Oc1cc(ccc1O)CC1c4c(cc(OC)c(O)c4Oc4ccc(cc4)CC3N(C)CC2)CC[N+]1(C)C (stereo not drawn) | > 20 µM | > 20 µM
OC(CCN1CCCCC1)(c1ccccc1)C1C[C@@H]2C=C[C@H]1C2 (stereo partly drawn) | > 20 µM | > 20 µM
CC(CNC(=O)c1cccnc1)NC(=O)c1cccnc1 (stereo not drawn) | > 20 µM | > 20 µM
CC12CCC(C(=O)N(CCCCN3CCN(c4ccccn4)CC3)C1=O)C2(C)C (stereo not drawn) | > 20 µM | > 20 µM
CC1(C)OC2CC(=O)OCC23C1CC(=O)C1(C)C3CCC2(C)C(c3ccoc3)OC(=O)C3OC321 (stereo not drawn) | > 20 µM | > 20 µM
C1CCN2CC3CC(CN4CCCCC34)C2C1 (stereo not drawn) | > 20 µM | > 20 µM
CC(C)(CO)C(O)C(=O)NCCCC(=O)O (stereo not drawn) | > 20 µM | > 20 µM
CC(=O)C[C@@H](c1ccccc1)c1c(O)c2ccccc2oc1=O | > 20 µM | > 20 µM
CC1C2Cc3ccc(O)cc3C1(C)CCN2CC1CC1 (stereo not drawn) | > 20 µM | > 20 µM
COc1cc2ncnc(Nc3cccc(Br)c3)c2cc1OC | > 20 µM | > 20 µM
CC12CCC3C(CC=C4CC(O)CCC43C)C1CCC2=O (stereo not drawn) | > 20 µM | > 20 µM
O=C(O)C=Cc1ccc(O)c(O)c1 | > 20 µM | > 20 µM
CN1C2CCC1CC(OC(c1ccccc1)c1ccccc1N)C2 (stereo not drawn) | > 20 µM | > 20 µM

SMILES | IC50 | IC50 (read-out: pIC50 (converted))
COc1ccc2c3c1O[C@H]1[C@@H](O)CCC4[C@@H](C2)N(C)CC[C@@]341 (stereo partly drawn) | > 20 µM | > 20 µM
CC(C)CC(NC(=O)C(Cc1ccccc1)NC(=O)CNC(=O)C(C)NC(=O)C(N)Cc1ccc(O)cc1)C(=O)O (stereo not drawn) | > 20 µM | > 20 µM
CC12CCC3C(CCC4(O)CC(O)CCC34C=O)C1(O)CCC2C1=CC(=O)OC1 (stereo not drawn) | > 20 µM | > 20 µM
NCCCCCCNS(=O)(=O)c1cccc2c(Cl)cccc12 | > 20 µM | > 20 µM
Nc1ncnc2c1ncn2C1CC(O)C(CO)O1 (stereo not drawn) | > 20 µM | > 20 µM
Cc1cn(C2C=CC(CO)O2)c(=O)[nH]c1=O (stereo not drawn) | > 20 µM | > 20 µM
N=C(N)NCCC[C@H](NC(=O)c1ccc2ccccc2c1O)C(=O)N1CCC[C@H]1C(N)=O | > 20 µM | > 20 µM
N/C=C1\Cc2ccccc2C1=O | > 20 µM | > 20 µM
CC12CCC3c4ccc(OC(=O)c5ccccc5)cc4CCC3C1CCC2O (stereo not drawn) | > 20 µM | > 20 µM
O=C(CCc1ccc(O)cc1)c1c(O)cc(O)cc1OC1OC(CO)C(O)C(O)C1O (stereo not drawn) | > 20 µM | > 20 µM
O=C(O)c1ccc(NC2OC(CO)C(O)C(O)C2O)cc1 (stereo not drawn) | > 20 µM | > 20 µM
CC(=O)O[C@H]1C[C@H](O[C@H]2[C@@H](O)C[C@H](O[C@H]3[C@@H](O)C[C@H](OC4CCC5(C)C(CCC6C5CCC5(C)C(C7=CC(=O)OC7)CCC65O)C4)O[C@@H]3C)O[C@@H]2C)O[C@H](C)[C@H]1O[C@@H]1O[C@H](CO)[C@@H](O)[C@H](O)[C@H]1O (stereo partly drawn) | > 20 µM | > 20 µM
CCC12CCN(CC3CCC3)[C@@H](Cc3ccc(O)cc31)C2(C)C | > 20 µM | > 20 µM
CC/C(=C(\CC)c1ccc(OP(=O)(O)O)cc1)c1ccc(OP(=O)(O)O)cc1 | > 20 µM | > 20 µM
C=C[C@@](C)(O)CC[C@H]1C(=C)CCC2[C@@](C)(CO)CCC[C@@]21C (stereo partly drawn) | > 20 µM | > 20 µM
O=C(O)c1cc(NC(=O)[C@@H](Cc2ccccc2F)NC(=O)c2cc3[nH]cnc3cc2C(=O)NCC2CCCCCC2)cc(C(=O)O)c1 | > 20 µM | > 20 µM
CC1(C)OC2CC3C4CCC5=CC(=O)C=CC5(C)C4C(O)CC3(C)[C@]2(C(=O)CO)O1 (stereo partly drawn) | > 20 µM | > 20 µM
C/C=C/CC(C)C(O)C1C(=O)NC(CC)C(=O)N(C)CC(=O)N(C)C(C(C)CC)C(=O)NC(C(C)C)C(=O)N(C)C(CC(C)C)C(=O)NC(C)C(=O)NC(C)C(=O)N(C)C(CC(C)C)C(=O)N(C)C(CC(C)C)C(=O)N(C)C(C(C)C)C(=O)N1C (stereo not drawn) | > 20 µM | > 20 µM
Cc1ccc(S(=O)(=O)NC(=O)NC2C3CCC(C)(C2O)C3(C)C)cc1 (stereo not drawn) | > 20 µM | > 20 µM
CCOC(=O)c1ncc2[nH]c3cccc(OCc4ccccc4)c3c2c1COC | > 20 µM | > 20 µM
CC(=O)O[C@]1(C(C)=O)CCC2C3CCC4=CC(=O)CCC4C3C(C)CC21C (stereo partly drawn) | > 20 µM | > 20 µM
O=[N+]([O-])/C(Br)=C\c1ccc(Br)o1 | > 20 µM | > 20 µM
C#C[C@@]1(O)CCC2C3CCc4cc(OC)ccc4C3CCC21C (stereo partly drawn) | > 20 µM | > 20 µM
CC1CC2(C)C3CCC4(C)C(O)CCC4C3CC[C@H]2CC1=O (stereo partly drawn) | > 20 µM | > 20 µM
CC1CC2=CC(=O)CCC2C2CCC3(C)C(CCC3(C)O)C12 (stereo not drawn) | > 20 µM | > 20 µM
CN(C)CCOc1ccc(/C(=C(\CCCl)c2ccccc2)c2ccccc2)cc1 | > 20 µM | > 20 µM
CCN(CC)CC(C)(C)COC(=O)c1ccc(N)cc1 | > 20 µM | > 20 µM

SMILES | IC50 | IC50 (read-out: pIC50 (converted))
CC12C=CC(=O)C=C1CCC1C2C(O)CC2(C)C1CCC2(O)C(=O)COC(=O)CCCc1ccc(N(CCCl)CCCl)cc1 (stereo not drawn) | > 20 µM | > 20 µM
CC12CCC(O)CC1=CCC1C2CCC2(C)C(O)CCC12 (stereo not drawn) | > 20 µM | > 20 µM
[2H]C([2H])([2H])OCCCN1CCC(NC(=O)c2cc(Cl)c(N)c3c2OCC3)CC1 | > 20 µM | > 20 µM
CC12CCC3C(CC[C@H]4Cc5n[nH]cc5C[C@]34C)C1CC[C@]2(C)O (stereo partly drawn) | > 20 µM | > 20 µM
CN1CC[C@]23c4c5ccc(O)c4O[C@H]2C(=O)C=C[C@@]3(O)C1C5 | > 20 µM | > 20 µM
CC(C)CCCC(C)C1CCC2C3CC[C@H]4CC(O)CCC4(C)C3CCC12C (stereo partly drawn) | > 20 µM | > 20 µM
COc1ccc2c3c1OC1C(O)CCC4C(C2)N(C)CCC341 (stereo not drawn) | > 20 µM | > 20 µM
Cc1ccc([C@H]2O[C@H](CO)[C@@H](O)[C@H](O)[C@H]2O)cc1Cc1ccc(-c2ccc(F)cc2)s1 | > 20 µM | > 20 µM
CC(=O)N[C@H]1C[C@H]2CC[C@@H](C1)N2Cc1ccc(Oc2nc3ncccc3s2)cc1 | > 20 µM | > 20 µM
CCC1=C[C@@H]2CN3CCc4c([nH]c5ccccc45)[C@@](C(=O)OC)(C2)[C@H]13 | > 20 µM | > 20 µM
CCC1(C2OC(C3OC(O)(CO)C(C)CC3C)CC2C)CCC(C2(C)CCC3(CC(O)C(C)C(C(C)C(OC)C(C)C(=O)O)O3)O2)O1 (stereo not drawn) | > 10 µM | > 10 µM
COc1ccc(C(=O)OC2CCC3(C)C4CCC5[C@]6(O)[C@@H](O)C(O)[C@H]7C(CN8CC(C)CC[C@H]8[C@@]7(C)O)[C@@H]6C[C@@]53O[C@]24O)cc1OC (stereo partly drawn) | > 20 µM | > 20 µM
N#Cc1cccc([C@H]2C=C(C(F)(F)F)NC3=C2C(=O)CCC3)c1 | > 20 µM | > 20 µM
CCC(CO)NC(=O)[C@@H]1C=C2c3cccc4[nH]cc(c34)CC2N(C)C1 (stereo partly drawn) | > 20 µM | > 20 µM
O/N=C1/CCCC/C1=N\O | > 20 µM | > 20 µM
CC1(C)CCC2(C)CCC3(C)C(=CCC4C5(C)CCC(O)C(C)(C)[C@@H]5CCC43C)C2C1 (stereo partly drawn) | > 20 µM | > 20 µM
CC(=O)Nc1ccc(S(=O)(=O)Nc2ccc([N+](=O)[O-])cc2)cc1 | > 20 µM | > 20 µM
COc1ccccc1N1CCN(CCn2c(=O)[nH]c3ccccc3c2=O)CC1 | > 20 µM | > 20 µM
Cc1cccc(N2CCN(CCCOc3ccc4ccc(O)nc4c3)CC2)c1C | > 20 µM | > 20 µM
Nc1nc(N)c2nc(-c3ccccc3)c(N)nc2n1 | > 20 µM | > 20 µM
CC(O)(C(=O)Nc1ccc(C(=O)c2ccccc2)cc1)C(F)(F)F (stereo not drawn) | > 20 µM | > 20 µM
CC12CCC3C(CCC4CC(=O)CCC43C)C1CCC2=O (stereo not drawn) | > 20 µM | > 20 µM
CCOCN1C2=C(C(=O)Nc3ccccc3F)C(=O)CCN2c2ccc(F)cc21 | > 20 µM | > 20 µM
N[C@@H](Cc1ccc(N(CCCl)CCCl)cc1)C(=O)O | > 20 µM | > 20 µM
CCN1C(=S)N(c2ccc(N3CCN(c4ccc(O)cc4)CC3)cc2)C(=O)C1(C)C | > 20 µM | > 20 µM
